Data taken from ChEMBL document CHEMBL1201862, “PubChem BioAssay data set” (2004).
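Values below derive from 48-hour exposures of cells grown in 96-well plates, with endpoints linearly interpolated between the two concentrations bracketing the appropriate inhibition level. GI50 marks 50% less growth.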 Active and inactive are the calls of the source. Cut-off read from the data, not from the text of the source: active = GI50 up to about 1.1 µM and inactive = higher.

Tests used:
Assay in all cases: NCI-60 cell line screen, 48 h
[1] = test system: 786-0
[2] = test system: CAKI-1
[3] = test system: COLO 205
[4] = test system: HCC 2998
[5] = test system: HL-60
[6] = test system: IGROV-1
[7] = test system: K562
[8] = test system: MCF7
[9] = test system: MOLT-4
[10] = test system: OVCAR-4
[11] = test system: RPMI-8226
[12] = test system: RXF 393
[13] = test system: SK-MEL-28
[14] = test system: A498
[15] = test system: SF-539
[16] = test system: SK-MEL-2
[17] = test system: UO-31
[18] = test system: OVCAR-5
[19] = test system: Hs-578T

Measured: GI50

CCOC(=O)CSc1[nH]c2nc(C)nc(Cl)c2c1C#N
inactive: [1] > 10 µM | [2] > 10 µM | [3] > 10 µM | [4] > 10 µM | [5] > 10 µM | [6] > 10 µM | [7] > 10 µM | [8] > 10 µM | [9] > 10 µM | [10] > 10 µM | [11] > 10 µM | [12] > 10 µM | [13] > 10 µM

CCOC(=O)C(C)(C)Oc1ccc2c(=O)cc(-c3ccc(Cl)cc3)oc2c1
inactive: [1] > 100 µM | [14] > 100 µM | [3] > 100 µM | [4] > 100 µM | [5] > 100 µM | [6] > 100 µM | [7] > 100 µM | [9] > 100 µM | [10] > 100 µM | [11] > 100 µM | [12] > 100 µM | [15] > 100 µM | [13] > 100 µM | [16] > 100 µM | [17] > 100 µM

O=[N+]([O-])c1ccc(Cl)c2c([N+](=O)[O-])cccc12
inactive: [1] 3.14 µM | [3] 4.57 µM | [4] > 10 µM | [5] 2.48 µM | [6] 8.02 µM | [7] 4.02 µM | [8] 4.43 µM | [9] 4.9 µM | [10] 6.22 µM | [11] 5.52 µM | [12] > 10 µM | [15] 3.06 µM | [13] 7.93 µM | [16] 8.34 µM

COC(=O)C(Cc1nc2ccccc2nc1O)C(=O)C(=O)Nc1ccc([N+](=O)[O-])cc1[N+](=O)[O-] (stereo unspecified)
inactive: [1] 16.5 µM | [14] 23 µM | [2] 32.4 µM | [3] 16.4 µM | [4] 18.1 µM | [5] 21.8 µM | [6] 25.6 µM | [7] 30.8 µM | [9] 18.5 µM | [10] 20.1 µM | [18] 27.2 µM | [11] 23.1 µM | [12] 18.3 µM | [15] 20.6 µM | [13] 22.6 µM | [16] 20.7 µM | [17] 20.6 µM

CC(C)C1OC(N)=C(C#N)C1(C#N)C#N (stereo unspecified)
inactive: [1] 29.4 µM | [14] > 100 µM | [2] 3.79 µM | [3] 18.2 µM | [4] 24.5 µM | [5] 5.58 µM | [19] 53.7 µM | [6] 51.4 µM | [7] 8.49 µM | [8] 69.7 µM | [18] > 100 µM | [11] 29 µM | [12] 44.7 µM | [15] 44.7 µM | [16] > 100 µM | [17] 33.1 µM

c1ccc(C2=NOC3COc4ccccc4OCC23)cc1 (stereo unspecified)
inactive: [1] > 100 µM | [14] > 100 µM | [2] 97.5 µM | [3] > 100 µM | [4] > 100 µM | [5] 89.5 µM | [7] 72.6 µM | [9] > 100 µM | [10] > 100 µM | [11] > 100 µM | [12] > 100 µM | [15] > 100 µM | [13] > 100 µM | [16] > 100 µM | [17] 77.1 µM

CCc1oc2ccc(OC)c3c2c1C=CC=C3
inactive: [1] > 100 µM | [14] > 100 µM | [3] > 100 µM | [4] > 100 µM | [5] 87.7 µM | [6] > 100 µM | [7] > 100 µM | [9] > 100 µM | [10] > 100 µM | [18] > 100 µM | [11] > 100 µM | [12] 54.1 µM | [15] > 100 µM | [13] > 100 µM | [16] > 100 µM | [17] 21.9 µM

Cc1cc(-c2ccc(Cl)cc2)c(C#N)c(=S)n1C1OC(CO)C(O)C(O)C1O (stereo unspecified)
inactive: [1] > 100 µM | [14] > 100 µM | [2] > 100 µM | [3] > 100 µM | [4] > 100 µM | [5] > 100 µM | [19] > 100 µM | [6] > 100 µM | [8] > 100 µM | [9] > 100 µM | [10] > 100 µM | [18] > 100 µM | [12] > 100 µM | [15] > 100 µM | [13] > 100 µM | [16] > 100 µM

CN(C)CCNC(=O)c1cccc2c(NC(CCCNC(=N)N)C(=O)O)c3ccccc3nc12 (stereo unspecified)
inactive: [1] 7.52 µM | [14] 19.8 µM | [3] 6.22 µM | [5] > 100 µM | [19] 11.4 µM | [6] 4.59 µM | [7] 5.68 µM | [8] 5.27 µM | [9] 3.89 µM | [10] 5.09 µM | [18] 9.95 µM | [11] 6.59 µM | [13] 25.7 µM | [16] 13.8 µM | [17] 2.82 µM

Clc1ccccc1/C=C\C1(c2ccccc2)OCCO1
inactive: [1] 16.5 µM | [14] 20.7 µM | [2] 17.3 µM | [3] 21.3 µM | [4] 17.5 µM | [5] 24.8 µM | [19] 13.8 µM | [6] 14.2 µM | [7] 16.7 µM | [8] 2.77 µM | [9] 15.9 µM | [10] 18 µM | [18] 20 µM | [11] 4.2 µM | [12] 19.1 µM | [15] 24.9 µM | [13] 21.1 µM | [17] > 100 µM

CN1N=C(c2ccncc2)OC1c1ccccc1F (stereo unspecified)
inactive: [1] > 100 µM | [14] > 100 µM | [3] > 100 µM | [4] > 100 µM | [5] > 100 µM | [19] > 100 µM | [6] > 100 µM | [7] > 100 µM | [9] > 100 µM | [10] > 100 µM | [18] > 100 µM | [11] > 100 µM | [12] > 100 µM | [15] > 100 µM | [13] > 100 µM | [16] > 100 µM | [17] > 100 µM

CCCCC(C(=O)C(=O)NC1C2CC3CC(C2)CC1C3)C(=O)C(C)C (stereo unspecified)
inactive: [1] > 100 µM | [14] > 100 µM | [2] > 100 µM | [3] > 100 µM | [4] > 100 µM | [5] > 100 µM | [6] > 100 µM | [7] > 100 µM | [9] > 100 µM | [10] > 100 µM | [18] > 100 µM | [11] > 100 µM | [12] > 100 µM | [15] > 100 µM | [13] > 100 µM | [16] > 100 µM | [17] > 100 µM

CCOC(=O)N1C/C(=C\c2ccc(N(C)C)cc2)C(=O)/C(=C/c2ccc(N(C)C)cc2)C1
inactive: [1] > 100 µM | [14] > 100 µM | [2] > 100 µM | [3] > 100 µM | [4] > 100 µM | [5] > 100 µM | [6] > 100 µM | [7] > 100 µM | [9] > 100 µM | [10] > 100 µM | [18] > 100 µM | [11] > 100 µM | [12] > 100 µM | [15] > 100 µM | [13] > 100 µM | [16] > 100 µM | [17] > 100 µM

NC(=S)N/N=C(/CC(=O)c1ccccc1)C(=O)Nc1ccc(Cl)c(Cl)c1
inactive: [1] 59.7 µM | [14] > 100 µM | [2] 68.5 µM | [3] > 100 µM | [4] 93.5 µM | [5] 23.3 µM | [6] 65.2 µM | [7] > 100 µM | [9] 32.3 µM | [10] 57.3 µM | [18] > 100 µM | [11] 73.3 µM | [12] > 100 µM | [15] > 100 µM | [13] > 100 µM | [16] 78.2 µM | [17] 51.2 µM

O=C(CO)CC(=O)C(=O)Nc1nc([N+](=O)[O-])cs1
inactive: [1] > 100 µM | [14] > 100 µM | [2] > 100 µM | [3] > 100 µM | [4] > 100 µM | [5] > 100 µM | [6] > 100 µM | [7] > 100 µM | [9] > 100 µM | [10] > 100 µM | [18] > 100 µM | [11] > 100 µM | [12] > 100 µM | [15] > 100 µM | [13] > 100 µM | [16] > 100 µM | [17] > 100 µM

CC(=O)[O-].Cc1ncc(CO)c(/C=N/NC(N)=S)c1[O-].[Zn+2]
inactive: [1] > 100 µM | [14] > 100 µM | [3] > 100 µM | [4] > 100 µM | [5] > 100 µM | [6] > 100 µM | [7] > 100 µM | [9] > 100 µM | [10] > 100 µM | [18] > 100 µM | [11] > 100 µM | [12] > 100 µM | [15] > 100 µM | [13] > 100 µM | [16] > 100 µM | [17] > 100 µM

CCC1(O)C(=O)OCc2c1cc1n(c2=O)Cc2cc3cc(OC)c(OC)cc3nc2-1 (stereo unspecified)
inactive: [1] 6.28 µM | [14] 28.1 µM | [3] 32.6 µM | [4] 36.7 µM | [5] 12 µM | [6] 13.9 µM | [7] 78.5 µM | [9] 4.85 µM | [10] > 100 µM | [18] > 100 µM | [11] 46.8 µM | [12] 16.9 µM | [15] 5.74 µM | [13] > 100 µM | [17] 32 µM
